In ChEMBL document CHEMBL6134849, “A Water-Soluble Aggregation-Induced Emission Photosensitizer with Intrinsic Antibacterial Activity as an Antiplanktonic and Antibiofilm Therapeutic Agent” (J Med Chem, 2025):
Active and inactive are the calls of the source.

Key:
[1] = system: Staphylococcus aureus; experiment: Antibacterial activity against Staphylococcus aureus at 6.25 uM measured within 2 hrs in absence of light irradiation by time-kill kinetics assay relative to control; assay type: functional
[2] = system: Cell membrane; experiment: Induction of cell membrane damage in Staphylococcus aureus assessed as protein leakage at 10 uM preincubated with compound for 20 mins followed by 600 nm light irradiation for 45 min by absorption based plate reader analysis; assay type: subcellular; conditions: time 65.0 min
[3] = system: Staphylococcus aureus; experiment: Downregulation of hisS expression level in Staphylococcus aureus at 6.25 uM incubated for 1 hr in absence of light irradiation; assay type: functional
[4] = system: Staphylococcus aureus; experiment: Downregulation of valS expression level in Staphylococcus aureus at 6.25 uM incubated for 1 hr in absence of light irradiation; assay type: functional
[5] = system: Staphylococcus aureus; experiment: Downregulation of femX expression level in Staphylococcus aureus at 6.25 uM incubated for 1 hr in absence of light irradiation; assay type: functional
[6] = system: Staphylococcus aureus; experiment: Downregulation of murF expression level in Staphylococcus aureus at 6.25 uM incubated for 1 hr in absence of light irradiation; assay type: functional
[7] = system: Staphylococcus aureus; experiment: Downregulation of gltX expression level in Staphylococcus aureus at 6.25 uM incubated for 1 hr in absence of light irradiation; assay type: functional
[8] = system: Cell membrane; experiment: Induction of cell membrane depolarization in Staphylococcus aureus assessed as increase in fluorescence intensity in absence of light irradiation by Disc3(5) dye based fluorescence assay; assay type: subcellular
[9] = Induction of […] ROS generation in PBS assessed as increase in hydroxyl radical by measuring increase in HPF fluorescence intensity at 10 uM irradiated with 660 nm 60 mW/cm2 light for 15 mins by HPF probe based plate reader analysis; assay type: functional
[10] = system: Staphylococcus aureus; experiment: Downregulation of glyQS expression level in Staphylococcus aureus at 6.25 uM incubated for 1 hr in absence of light irradiation; assay type: functional
[11] = system: Staphylococcus aureus; experiment: (§1) In vivo antibacterial activity against methicillin-resistant Staphylococcus aureus ATCC 43300 infected in female BALB/c mouse skin wound infection model assessed as reduction in inflammatory cell infiltration in wound at 90 uM pre-infected with bacteria for 24 hrs followed by topical compound addition for 10 mins in presence of 600 nm 60 mW/cm2 light irradiation for 15 mins and measured on day 6 by H and E staining based analysis; assay type: functional, organism-based; conditions: time 6.0 day
[12] = target: DNA gyrase (Staphylococcus aureus) (UniProt P0A0K8+P20831); experiment: Inhibition of Staphylococcus aureus DNA gyrase supercoiling using relaxed pBR322 as substrate at 3.125 to 25 uM incubated for 30 mins in absence of light irradiation by gel based method; assay type: protein-complex assay; conditions: dose 3.125-25 µM
Chain of DNA gyrase (Staphylococcus aureus) (P0A0K8 2-644 limits assumed): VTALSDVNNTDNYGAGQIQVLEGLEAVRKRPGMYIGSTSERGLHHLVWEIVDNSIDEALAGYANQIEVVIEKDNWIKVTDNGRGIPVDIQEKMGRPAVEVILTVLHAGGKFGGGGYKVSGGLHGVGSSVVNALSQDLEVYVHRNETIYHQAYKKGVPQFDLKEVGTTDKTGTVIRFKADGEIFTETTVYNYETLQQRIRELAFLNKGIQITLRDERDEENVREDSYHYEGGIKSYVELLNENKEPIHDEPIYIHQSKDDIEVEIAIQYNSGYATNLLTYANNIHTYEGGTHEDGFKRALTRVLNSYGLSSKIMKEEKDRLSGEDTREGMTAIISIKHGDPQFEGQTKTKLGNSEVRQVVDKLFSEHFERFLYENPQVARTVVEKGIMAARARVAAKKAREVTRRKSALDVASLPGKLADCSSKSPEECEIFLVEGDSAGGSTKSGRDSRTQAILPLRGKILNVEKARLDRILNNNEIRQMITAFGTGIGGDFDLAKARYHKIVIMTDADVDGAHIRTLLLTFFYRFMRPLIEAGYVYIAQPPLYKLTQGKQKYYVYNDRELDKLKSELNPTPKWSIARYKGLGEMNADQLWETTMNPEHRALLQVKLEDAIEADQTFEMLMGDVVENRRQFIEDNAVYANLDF
Chain of DNA gyrase (Staphylococcus aureus) (P20831 whole entry partner): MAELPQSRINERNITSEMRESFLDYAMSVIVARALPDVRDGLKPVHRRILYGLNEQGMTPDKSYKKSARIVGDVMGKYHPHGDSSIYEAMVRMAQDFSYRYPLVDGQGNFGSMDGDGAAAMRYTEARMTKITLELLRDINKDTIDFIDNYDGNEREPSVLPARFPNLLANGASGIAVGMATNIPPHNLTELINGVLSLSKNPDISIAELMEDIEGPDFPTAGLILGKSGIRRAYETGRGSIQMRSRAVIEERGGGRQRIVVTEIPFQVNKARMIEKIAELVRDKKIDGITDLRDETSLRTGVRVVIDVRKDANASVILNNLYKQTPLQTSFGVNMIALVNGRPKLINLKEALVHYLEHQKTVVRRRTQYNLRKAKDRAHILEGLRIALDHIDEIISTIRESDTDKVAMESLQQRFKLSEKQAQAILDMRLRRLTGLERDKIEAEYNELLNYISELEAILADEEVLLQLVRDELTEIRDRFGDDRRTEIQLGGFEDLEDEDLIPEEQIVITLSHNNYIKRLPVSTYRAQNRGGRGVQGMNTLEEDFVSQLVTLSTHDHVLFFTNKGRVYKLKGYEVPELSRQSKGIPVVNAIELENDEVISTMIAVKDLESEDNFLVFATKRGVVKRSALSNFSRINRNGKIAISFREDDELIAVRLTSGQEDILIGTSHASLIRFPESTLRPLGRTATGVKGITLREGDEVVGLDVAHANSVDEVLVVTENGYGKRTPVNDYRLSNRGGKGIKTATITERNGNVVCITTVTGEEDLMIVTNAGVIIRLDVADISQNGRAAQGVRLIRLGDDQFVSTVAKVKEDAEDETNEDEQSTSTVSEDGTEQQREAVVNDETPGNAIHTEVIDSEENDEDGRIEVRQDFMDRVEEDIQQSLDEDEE

[13] = system: Cell membrane; experiment: Induction of cell membrane damage in Pseudomonas aeruginosa assessed as DNA leakage at 10 uM preincubated with compound for 20 mins followed by 600 nm light irradiation for 45 min by absorption based plate reader analysis; assay type: subcellular; conditions: time 65.0 min
[14] = system: Staphylococcus aureus; experiment: Downregulation of murI expression level in Staphylococcus aureus at 6.25 uM incubated for 1 hr in absence of light irradiation; assay type: functional
[15] = system: Staphylococcus aureus; experiment: Downregulation of spoVG expression level in Staphylococcus aureus at 6.25 uM incubated for 1 hr in absence of light irradiation; assay type: functional
[16] = system: Staphylococcus aureus; experiment: Downregulation of uppP expression level in Staphylococcus aureus at 6.25 uM incubated for 1 hr in absence of light irradiation; assay type: functional
[17] = system: Cell membrane; experiment: Induction of cell membrane damage in Staphylococcus aureus assessed as DNA leakage at 10 uM preincubated with compound for 20 mins followed by 600 nm light irradiation for 45 min by absorption based plate reader analysis; assay type: subcellular; conditions: time 65.0 min
[18] = system: Staphylococcus aureus; experiment: Downregulation of lysS expression level in Staphylococcus aureus at 6.25 uM incubated for 1 hr in absence of light irradiation; assay type: functional
[19] = system: Staphylococcus aureus; experiment: Downregulation of murB expression level in Staphylococcus aureus at 6.25 uM incubated for 1 hr in absence of light irradiation; assay type: functional
[20] = system: Staphylococcus aureus; experiment: Downregulation of cell wall organization related proteins in Staphylococcus aureus under light irradiation; assay type: functional, organism-based
[21] = system: Staphylococcus aureus; experiment: Downregulation of ileS expression level in Staphylococcus aureus at 6.25 uM incubated for 1 hr in absence of light irradiation; assay type: functional
[22] = system: Staphylococcus aureus; experiment: Downregulation of thrS expression level in Staphylococcus aureus at 6.25 uM incubated for 1 hr in absence of light irradiation; assay type: functional
[23] = system: Cell membrane; experiment: Induction of cell membrane damage in Pseudomonas aeruginosa assessed as protein leakage at 10 uM preincubated with compound for 20 mins followed by 600 nm light irradiation for 45 min by absorption based plate reader analysis; assay type: subcellular; conditions: time 65.0 min
[24] = Cytotoxicity against human HFF-1 cells assessed as cell viability at 40 uM in presence of 600 nm light irradiation for 45 mins by MTT assay relative to control; assay type: toxicity, cell-based; conditions: read-out: Activity
[25] = system: Staphylococcus aureus; experiment: (§2) In vivo antibacterial activity against methicillin-resistant Staphylococcus aureus ATCC 43300 infected in female BALB/c mouse skin wound infection model assessed as reduction in wound area at 90 uM pre-infected with bacteria for 24 hrs followed by topical compound addition for 10 mins in presence of 600 nm 60 mW/cm2 light irradiation for 15 mins and measured on day 4; assay type: functional, organism-based; conditions: time 4.0 day
[26] = system: Cell membrane; experiment: Induction of cell membrane damage in Staphylococcus aureus assessed as bacterial cell collapse at 10 uM preincubated with compound for 20 mins followed by 600 nm light irradiation for 45 min by SEM analysis; assay type: subcellular; conditions: time 65.0 min
[27] = system: Staphylococcus aureus; experiment: Downregulation of ssl7 protein expression in Staphylococcus aureus under light irradiation; assay type: functional
[28] = system: Cell membrane; experiment: Induction of cell membrane damage in Pseudomonas aeruginosa assessed as bacterial cell collapse at 10 uM preincubated with compound for 20 mins followed by 600 nm light irradiation for 45 min by SEM analysis; assay type: subcellular; conditions: time 65.0 min
[29] = system: Staphylococcus aureus; experiment: as §1, with “collagen deposition” for “reduction in inflammatory cell infiltration”; assay type: functional, organism-based; conditions: time 6.0 day
[30] = Induction of type-II ROS generation in PBS assessed as increase in singlet oxygen by measuring increase in SOSG fluorescence intensity at 10 uM irradiated with 660 nm 60 mW/cm2 light for 15 mins by SOSG probe based plate reader analysis; assay type: functional
[31] = system: Pseudomonas aeruginosa; experiment: as §2, with “Pseudomonas aeruginosa” for “Staphylococcus aureus”, “27853” for “43300”; assay type: functional, organism-based; conditions: time 4.0 day
[32] = system: Cell membrane; experiment: Induction of cell membrane damage in Staphylococcus aureus assessed as bacterial cell shrinkage at 10 uM preincubated with compound for 20 mins followed by 600 nm light irradiation for 45 min by SEM analysis; assay type: subcellular; conditions: time 65.0 min
[33] = system: Staphylococcus aureus; experiment: Downregulation of sle1 expression level in Staphylococcus aureus at 6.25 uM incubated for 1 hr in absence of light irradiation; assay type: functional
[34] = system: Pseudomonas aeruginosa; experiment: Antibiofilm activity against Pseudomonas aeruginosa assessed as bacterial eradication by measuring green fluorescence signal at 10 uM incubated for 1 hrs in presence of light irradiation by calcein-AM fluorescence dye based analysis; assay type: functional, organism-based
[35] = system: Staphylococcus aureus; experiment: Downregulation of hlgB protein expression in Staphylococcus aureus under light irradiation; assay type: functional

C#CCC[n+]1c(/C=C/c2ccc(-c3ccc(N(c4ccc(OCCC[N+](C)(C)C)cc4)c4ccc(OCCC[N+](C)(C)C)cc4)cc3)s2)sc2ccccc21.[Br-].[Br-].[Br-]
< 90%: viability at 0.75 h, 40 µM [24]
100%: Activity [1]
active: Activity [2] | Activity [3] | Activity [4] | Activity [5] | Activity [6] | Activity [7] | Activity [8] Dose-dependent-effect | Activity [9] | Activity [10] | Activity [11] | inhibition [12] | Activity [13] | Activity [14] | Activity [15] | Activity [16] | Activity [17] | Activity [18] | Activity [19] | Activity [20] | Activity [21] | Activity [22] | Activity [23] | Activity [25] | Activity [26] | Activity [27] | Activity [28] | Activity [29] | Activity [30] | Activity [31] | Activity [32] | Activity [33] | Activity [34] | Activity [35]
